Reference: US20190247361A1, “OXYTOCIN ANTAGONIST DOSING REGIMENS FOR PROMOTING EMBRYO IMPLANTATION AND PREVENTING MISCARRIAGE” (ObsEva S.A., priority 2016, published 2019)

What was measured:
Assay type in all cases: in vitro ADME
CYP2D6 = CYP2D6 (Homo sapiens, UniProt P10635); assay: metabolism by CYP2D6 isoform; details: for Compound Remaining (% of compound present at t = 0 min): 5 μM
Procedure: (§1) At five time points over the course of a 45 minute experiment, the compounds were analyzed by LC-MS/MS. The percentage of each compound remaining at each time point, along with the metabolic half-lives of each compound in the presence of each cytochrome P450 isoform, are indicated in Tables 10-12, below.

CYP2C19 = CYP2C19 (Homo sapiens, UniProt P33261); assay: metabolism by CYP2C19 isoform; details: for Compound Remaining (% of compound present at t = 0 min): 5 μM
Procedure: as §1

cytochrome P450 = assay: microsomal stability, pooled liver microsomes, cytochrome P450 alone; details: 45 minute experiment
Procedure: (§2) At five time points over the course of a 45 minute experiment, the compounds were analyzed by liquid chromatography and tandem mass spectrometry (LC-MS/MS). Intrinsic clearance values (CLint) with standard error (SE CLint) and metabolic half-life (t1/2) were calculated and are indicated in Table 9, below.

[1] = system: cytochrome P450 in combination with UGT; assay: microsomal stability, pooled liver microsomes, cytochrome P450 in combination with UGT; details: 45 minute experiment
Procedure: as §2

CYP3A4 = CYP3A4 (Homo sapiens, UniProt P08684); assay: metabolism by CYP3A4 isoform; details: for Compound Remaining (% of compound present at t = 0 min): 5 μM
Procedure: as §1

CYP2C19, sequence (P33261 whole entry, canonical isoform): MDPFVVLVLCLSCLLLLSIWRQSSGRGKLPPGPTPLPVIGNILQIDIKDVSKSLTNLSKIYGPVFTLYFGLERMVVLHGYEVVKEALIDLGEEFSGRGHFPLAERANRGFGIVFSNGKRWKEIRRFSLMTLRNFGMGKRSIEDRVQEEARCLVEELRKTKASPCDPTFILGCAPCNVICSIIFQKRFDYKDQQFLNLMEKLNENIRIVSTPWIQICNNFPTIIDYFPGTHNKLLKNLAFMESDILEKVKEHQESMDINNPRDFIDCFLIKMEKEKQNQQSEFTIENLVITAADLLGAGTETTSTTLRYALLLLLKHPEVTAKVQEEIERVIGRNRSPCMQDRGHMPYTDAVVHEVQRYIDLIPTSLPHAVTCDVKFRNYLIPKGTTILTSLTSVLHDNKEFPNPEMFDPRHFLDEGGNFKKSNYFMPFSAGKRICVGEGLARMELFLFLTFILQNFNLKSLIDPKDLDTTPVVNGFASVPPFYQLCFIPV
CYP3A4, sequence (P08684 whole entry, canonical isoform): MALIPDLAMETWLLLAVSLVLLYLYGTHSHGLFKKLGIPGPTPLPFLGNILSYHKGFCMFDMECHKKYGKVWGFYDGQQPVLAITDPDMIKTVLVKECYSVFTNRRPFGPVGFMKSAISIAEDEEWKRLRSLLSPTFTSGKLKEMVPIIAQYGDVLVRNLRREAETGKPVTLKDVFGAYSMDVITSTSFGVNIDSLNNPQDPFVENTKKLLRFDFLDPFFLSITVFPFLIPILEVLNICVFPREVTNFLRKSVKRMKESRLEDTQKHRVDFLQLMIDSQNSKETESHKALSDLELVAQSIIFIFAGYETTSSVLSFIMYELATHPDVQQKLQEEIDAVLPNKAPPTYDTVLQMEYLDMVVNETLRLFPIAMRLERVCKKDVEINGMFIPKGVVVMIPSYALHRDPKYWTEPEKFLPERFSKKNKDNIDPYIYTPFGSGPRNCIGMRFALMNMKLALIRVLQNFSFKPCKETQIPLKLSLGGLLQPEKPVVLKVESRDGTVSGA
CYP2D6, sequence (P10635 whole entry, canonical isoform): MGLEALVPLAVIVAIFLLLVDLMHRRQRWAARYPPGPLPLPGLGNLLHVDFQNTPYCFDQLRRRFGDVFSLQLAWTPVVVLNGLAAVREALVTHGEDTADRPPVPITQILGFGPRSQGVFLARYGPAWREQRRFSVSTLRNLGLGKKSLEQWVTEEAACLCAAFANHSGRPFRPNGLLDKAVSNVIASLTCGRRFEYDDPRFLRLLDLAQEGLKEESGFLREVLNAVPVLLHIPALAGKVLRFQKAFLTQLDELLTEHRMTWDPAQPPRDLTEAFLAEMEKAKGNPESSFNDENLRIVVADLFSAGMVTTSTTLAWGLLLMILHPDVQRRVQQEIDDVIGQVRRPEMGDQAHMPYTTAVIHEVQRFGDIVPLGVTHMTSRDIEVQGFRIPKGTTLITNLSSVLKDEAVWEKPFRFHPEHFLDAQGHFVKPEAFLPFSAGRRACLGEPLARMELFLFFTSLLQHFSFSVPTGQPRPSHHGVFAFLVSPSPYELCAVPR

- Compound Remaining (% of compound present at t = 0 min) (CYP2D6; 0 min): 100%
- Compound Remaining (% of compound present at t = 0 min) (CYP2D6; 5 min): 49.3%
- Compound Remaining (% of compound present at t = 0 min) (CYP2D6; 15 min): 14.1%
- Compound Remaining (% of compound present at t = 0 min) (CYP2D6; 30 min): 2.43%
- Compound Remaining (% of compound present at t = 0 min) (CYP2D6; 45 min): 0.845%
- half-life at 5 μM (CYP2D6; human): 5.62 min
- Compound Remaining (% of compound present at t = 0 min) (CYP2C19; 0 min): 100%
- Compound Remaining (% of compound present at t = 0 min) (CYP2C19; 5 min): 87.6%
- Compound Remaining (% of compound present at t = 0 min) (CYP2C19; 15 min): 82.7%
- Compound Remaining (% of compound present at t = 0 min) (CYP2C19; 30 min): 57.1%
- Compound Remaining (% of compound present at t = 0 min) (CYP2C19; 45 min): 47.4%
- half-life at 5 μM (CYP2C19; human): 41.4 min
- microsomal CLint at 3 μM (cytochrome P450; read-out: CLint, Metabolic Stability - CYP): 6.4 µL/min/mg
- half-life at 3 μM (cytochrome P450; read-out: t1/2, Metabolic Stability - CYP): 216 min
- microsomal CLint at 3 μM ([1]; read-out: CLint, Metabolic Stability - CYP/UGT): 5.38 µL/min/mg
- half-life at 3 μM ([1]; read-out: t1/2, Metabolic Stability - CYP/UGT): 258 min
- Compound Remaining (% of compound present at t = 0 min) (CYP3A4; 0 min): 100%
- Compound Remaining (% of compound present at t = 0 min) (CYP3A4; 5 min): 107%
- Compound Remaining (% of compound present at t = 0 min) (CYP3A4; 15 min): 88.8%
- Compound Remaining (% of compound present at t = 0 min) (CYP3A4; 30 min): 92.5%
- Compound Remaining (% of compound present at t = 0 min) (CYP3A4; 45 min): 92.2%
- half-life at 5 μM (CYP3A4; human): 281 min
SMILES: CO/N=C1\C[C@@H](CO)N(C(=O)c2ccc(-c3ccccc3C)cc2)C1 [(3E) isomer, (3E,5S)-5-(hydroxymethyl)-1-[(2′-methyl-1,1′-biphenyl-4-yl)carbonyl]pyrrolidin-3-one O-methyloxime, reference compound]
